# Columns and labels:
# [1] = system: KIAA1983 mRNA expression; experiment: Change in KIAA1983 expression after treatment with methyl transferase inhibitor, quantitative RT-PCR; format: cell-based, human; settings: 1 μM for 72 hours, relative to GAPDH
# Description: (§1) FIG. 5 is a graphical representation showing the change In expression of KIAA1983 in epithelial ovarian cancer cell lines following treatment with the methyl transferase inhibitor 5-AZA (1 μM) for 72 hours, as determined by quantitative RT-PCR. The non-transformed cell line HOSE 6-3 was used as a control. Ovarian cancer cell lines were IGROV1, TOV21 G, OV90 and CAOV3. The relative amount of KIAA1983 mRNA in each cell line before (filled) and after (unfilled) treatment with methylation inhibitor was determined by comparison to a standard housekeeping gene (GAPDH), and is expressed as a fold change in expression level following treatment.
# Total RNA was isolated from the normal and tumour cell lines, reverse transcribed into cDNA and used as template in a quantitative PCR using a LightCycler system (Roche Diagnostics). The relative amount of each gene product was determined by comparison to a standard housekeeping gene (GAPDH).
# Thus, KIAA1983 is susceptible to gene silencing by hypermethylation thereby contributing to its reduced expression in epithelial ovarian cancers.
# [2] = system: MGC1136 expression; experiment: Change in MGC1136 expression after treatment with methylation inhibitor, quantitative RT-PCR; format: cell-based, human; settings: 1 μM for 72 hours, adjusted for GAPDH
# Description: as §1
# FIG. 9 is a graphical representation showing MGC1136 expression in IGROV, TOV21G and CaOV3 cells, in the presence (+) or absence (−) of the methylation inhibitor 5AZA (1 μM 5AZA for 72 hours). MGC1136 expression is represented as a relative fold change in expression in each cell line following treatment with 5AZA, and adjusted for the level of the housekeeping gene GAPDH. Experiments were performed as described in the legend for FIG. 5.
# However, expression of MGC1136 is not increased in TOV21 G cells (clear cell ovarian cancer) following treatment with the methylation inhibitor 5AZA. Thus, loss of MGC1136 expression by methylation of the MGC1136 promoter may be restricted to particular histological phenotypes of epithelial ovarian cancer.
structure (smiles),measurement,setting,value
"Nc1ncn([C@H]2C[C@H](O)[C@@H](CO)O2)c(=O)n1 [5-AZA, 5-aza-2′deoxycytodine]",expression of KIAA1983 mRNA following treatment,"[1]; epithelial ovarian cancer cell lines having reduced expression of KIAA1983 (IGROV1, TOV21G, OV90, CAOV3)",removes the block in expression of KIAA1983 mRNA
same,expression of KIAA1983 following treatment,[1]; normal ovarian cells (non-transformed HOSE 6-3 control),note modulated
same,expression of MGC1136 following treatment,[2]; CaOV3 cell line (serous epithelial ovarian cancer),marked increase in expression of MGC1136
same,expression of MGC1136 following treatment,[2]; IGROV cell line (serous epithelial ovarian cancer),marked increase in expression of MGC1136
same,expression of MGC1136 following treatment,[2]; TOV21 G cells (clear cell ovarian cancer),not increased
